From patent publication US20190365790A1, “Compounds, Compositions and Methods for Prevention or Treatment of Liver and Lipid-related Conditions” (SIVANARAY INC., priority 2017, published 2019)

Test system: HFD-fed, streptozotocin (STZ) injected rats with type 2 diabetes (T2DM)
Assay: Study 3 (BVISIV): plasma biochemical parameters in HFD + STZ type 2 diabetes rats
Format: in vivo
Conditions: for relative effectiveness in lowering serum triglyceride, LDL and ALT levels: 200 mg/kg/day oral, comparison among BVISIV formulations

Row | SMILES | lowering of glucose serum levels (200 mg/kg/day, end of 6 weeks, vs Group 2) | relative effectiveness in lowering serum triglyceride, LDL and ALT levels
1 | O=C[C@H](O)[C@@H](O)[C@@H](O)[C@H](O)C(=O)O [BVISIV 4, Galacturonic Acid] | most effective | –
2 | O=C[C@H](O)[C@@H](O)[C@@H](O)[C@H](O)CO [BVISIV 5, Galactose] | – | effective
3 | O=C[C@@H](O)[C@H](O)[C@H](O)CO [BVISIV 6, Arabinose] | – | did not perform as well as the other formulations
